pIC50: −log10 of the molar value.

The text below walks through data of patent publication US11878970B2, “Allosteric chromenone inhibitors of phosphoinositide 3-kinase (PI3K) for the treatment of disease” (Petra Pharma Corporation, priority 2021, dated 2024).

Test [1] addresses T1, PI3K-α (PIK3CA) wild-type (WT), p110α/p85α complex (Homo sapiens, UniProt P42336).
T1 construct: Recombinant, catalytically active human full length PIK3KA Wild-type and H1047R mutant; 6×His (N); purchased EMD Millipore Sigma 14-602M
The test is described as follows: PI3K-alpha kinase (PIK3CA) biochemical activity, ADP-Glo, wild-type. The note with it: Soy PI lipid substrate. The essentials: (§1)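 ADP formation measured by ADP-Glo luminescence after reaction at 27 °C to about 10% ATP turnover, using 20 uM ATP, 50 uM PIP2diC8 or soy PI lipid, HEPES pH 7.4 with MgCl2. Enzyme (1-5 nM WT or H1047R p110α/p85α) and compound preincubated 1 h first; 10-point 1:3 curves fitted four-parameter for IC50.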

In test [2] the target is T2, PI3K-α (PIK3CA) H1047R mutant, p110α/p85α complex (Homo sapiens, UniProt P42336, H1047R).
T2 construct: Recombinant, catalytically active human full length PIK3KA Wild-type and H1047R mutant; 6×His (N); purchased EMD Millipore Sigma 14-792M
The test is described as follows: PI3K-alpha kinase (PIK3CA) biochemical activity, ADP-Glo, H1047R mutant. The note with it: Soy PI lipid substrate. The essentials:
as §1
(In ADP-Glo the light output rises with the ADP produced.)

In test [3] the target is PI3K-α (PIK3CA) in MDA-MB-453 cells (Homo sapiens, UniProt P42336). The test is described as follows: PI3K-alpha kinase (PIK3CA) in vitro cell based assay, MDA-MB-453 cells, SureFire Ultra AlphaLisa. The conditions noted are these: read-out: PI3K-α (PIK3CA) in vitro cell based assay IC50. The method, boiled down:
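Cells treated 3 h in serum-free MEM with 1 μg/mL insulin, 10-point 1:3 series in 0.3% DMSO, then lysed for SureFire Ultra AlphaLisa read-out. Inhibition normalized to DMSO (max) and 1 μM GDC-0032 (min); duplicate averages fitted by 4-parameter logistic for relative IC50.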
A general note: Bead proximity is the source of the signal in Alpha formats.

Chain of PI3K-α (PIK3CA) in MDA-MB-453 cells (P27986 2-724): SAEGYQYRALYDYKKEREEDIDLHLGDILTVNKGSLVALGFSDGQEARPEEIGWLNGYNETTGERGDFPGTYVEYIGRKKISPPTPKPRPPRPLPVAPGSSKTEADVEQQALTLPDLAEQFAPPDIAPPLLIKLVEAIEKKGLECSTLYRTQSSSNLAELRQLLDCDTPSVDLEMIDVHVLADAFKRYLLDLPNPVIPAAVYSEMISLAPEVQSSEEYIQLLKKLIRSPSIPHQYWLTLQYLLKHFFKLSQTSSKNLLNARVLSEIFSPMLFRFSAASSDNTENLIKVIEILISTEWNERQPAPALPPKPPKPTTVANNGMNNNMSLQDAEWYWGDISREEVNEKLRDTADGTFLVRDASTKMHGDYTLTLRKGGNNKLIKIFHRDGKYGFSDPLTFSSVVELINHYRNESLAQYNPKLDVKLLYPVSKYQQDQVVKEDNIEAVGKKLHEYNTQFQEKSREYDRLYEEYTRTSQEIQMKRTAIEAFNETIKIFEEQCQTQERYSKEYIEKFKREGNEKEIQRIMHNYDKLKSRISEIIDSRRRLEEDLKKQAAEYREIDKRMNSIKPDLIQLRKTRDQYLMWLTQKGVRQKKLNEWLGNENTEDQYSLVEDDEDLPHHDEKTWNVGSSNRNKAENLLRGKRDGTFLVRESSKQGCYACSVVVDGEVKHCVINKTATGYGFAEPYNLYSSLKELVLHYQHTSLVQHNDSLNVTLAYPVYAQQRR
Chain of PI3K-α (PIK3CA) in MDA-MB-453 cells (P42336 whole entry): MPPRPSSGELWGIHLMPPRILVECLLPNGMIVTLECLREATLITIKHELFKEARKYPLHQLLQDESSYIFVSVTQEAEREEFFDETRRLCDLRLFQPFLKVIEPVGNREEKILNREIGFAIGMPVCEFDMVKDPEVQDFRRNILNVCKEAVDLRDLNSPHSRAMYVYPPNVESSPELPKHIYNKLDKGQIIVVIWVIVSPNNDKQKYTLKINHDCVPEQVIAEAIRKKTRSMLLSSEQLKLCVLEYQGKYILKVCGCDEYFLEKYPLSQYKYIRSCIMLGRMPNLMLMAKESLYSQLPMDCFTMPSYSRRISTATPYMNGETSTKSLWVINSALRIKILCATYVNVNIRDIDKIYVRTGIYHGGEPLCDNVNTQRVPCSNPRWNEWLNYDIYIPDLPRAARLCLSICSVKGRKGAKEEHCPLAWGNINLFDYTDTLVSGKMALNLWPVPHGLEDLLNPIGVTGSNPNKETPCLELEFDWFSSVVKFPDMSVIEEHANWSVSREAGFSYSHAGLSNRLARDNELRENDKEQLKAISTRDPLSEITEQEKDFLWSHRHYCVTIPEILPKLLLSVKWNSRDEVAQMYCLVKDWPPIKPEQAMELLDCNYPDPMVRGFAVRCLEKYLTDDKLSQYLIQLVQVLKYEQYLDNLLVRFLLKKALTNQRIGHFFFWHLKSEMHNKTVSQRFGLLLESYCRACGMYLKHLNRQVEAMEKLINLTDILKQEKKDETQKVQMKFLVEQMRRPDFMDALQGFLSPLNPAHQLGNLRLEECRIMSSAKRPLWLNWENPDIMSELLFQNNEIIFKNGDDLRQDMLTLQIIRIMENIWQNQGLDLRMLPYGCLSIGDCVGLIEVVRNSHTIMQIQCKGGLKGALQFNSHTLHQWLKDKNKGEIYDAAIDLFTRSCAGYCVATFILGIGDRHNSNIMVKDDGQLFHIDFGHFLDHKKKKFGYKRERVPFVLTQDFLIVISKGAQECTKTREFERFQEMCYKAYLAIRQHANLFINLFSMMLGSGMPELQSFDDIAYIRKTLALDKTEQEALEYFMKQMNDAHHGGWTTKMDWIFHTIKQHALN
T2 sequence (P42336 whole entry H1047R): as the sequence (P42336 whole entry) above, with H1047R counted along it
T2 sequence (P27986 whole entry partner): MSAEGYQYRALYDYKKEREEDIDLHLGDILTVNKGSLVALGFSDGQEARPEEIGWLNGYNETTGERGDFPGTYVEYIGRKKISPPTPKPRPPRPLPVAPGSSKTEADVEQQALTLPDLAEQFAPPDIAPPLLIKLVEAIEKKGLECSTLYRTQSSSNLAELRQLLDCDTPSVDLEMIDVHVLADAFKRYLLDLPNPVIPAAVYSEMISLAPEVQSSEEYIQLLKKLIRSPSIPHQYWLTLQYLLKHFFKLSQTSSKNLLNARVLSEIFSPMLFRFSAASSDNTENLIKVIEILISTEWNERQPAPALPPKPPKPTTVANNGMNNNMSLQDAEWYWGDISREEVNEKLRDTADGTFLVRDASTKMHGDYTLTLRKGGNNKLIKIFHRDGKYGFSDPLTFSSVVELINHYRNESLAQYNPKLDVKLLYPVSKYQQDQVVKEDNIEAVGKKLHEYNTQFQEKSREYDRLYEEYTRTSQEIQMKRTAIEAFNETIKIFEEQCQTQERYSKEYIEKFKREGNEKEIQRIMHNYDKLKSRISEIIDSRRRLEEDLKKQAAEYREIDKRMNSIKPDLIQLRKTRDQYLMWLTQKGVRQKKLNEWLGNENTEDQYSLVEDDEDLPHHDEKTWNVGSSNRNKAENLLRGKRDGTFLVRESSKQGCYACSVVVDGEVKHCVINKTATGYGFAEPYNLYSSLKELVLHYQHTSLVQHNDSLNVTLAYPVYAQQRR

One may read the pIC50 as the IC50 on a negative log10 scale, so that one unit is a factor of ten. Regarding `Cc1cc([C@@H](C)Nc2cccc(F)c2C(=O)O)c2oc(-c3ccc4nc(C)sc4n3)cc(=O)c2c1` [Example 257, 2-Fluoro-6-[[(1R)-1-[6-methyl-2-(2-methylthiazolo[5,4-b]pyridin-5-yl)-4-oxo-chromen-8-yl]ethyl]amino]benzoic acid], the pIC50 was 5.30 to 6.00 in test [1], > 6.30 in test [2] and > 7.30 in test [3].

Regarding `Cc1cc([C@@H](C)Nc2ccccc2C(=O)O)c2oc(-c3ccc4nc(C)sc4c3)c(C)c(=O)c2c1` [Example 262, 2-[[(1R)-1-[3,6-Dimethyl-2-(2-methyl-1,3-benzothiazol-6-yl)-4-oxo-chromen-8-yl]ethyl]amino]benzoic acid], the pIC50 is 6.00 to 6.30 in test [1], > 6.30 in test [2] and > 7.30 in test [3].

On to `Cc1cc([C@@H](C)Nc2ccccc2C(=O)O)c2oc(-c3ccc4nc(C)oc4n3)c(C)c(=O)c2c1` [Example 256, 2-[[(1R)-1-[3,6-Dimethyl-2-(2-methyloxazolo[5,4-b]pyridin-5-yl)-4-oxo-chromen-8-yl]ethyl]amino]benzoic acid], for which the pIC50 in test [1] was 6.00 to 6.30; in test [2], > 6.30; in test [3], > 7.30.

Regarding `Cc1cc([C@@H](C)Nc2ccc(Cl)nc2C(=O)O)c2oc(-c3ccc4nc(C)sc4n3)cc(=O)c2c1` [Example 251, 6-Chloro-3-[[(1R)-1-[6-methyl-2-(2-methylthiazolo[5,4-b]pyridin-5-yl)-4-oxo-chromen-8-yl]ethyl]amino]pyridine-2-carboxylic acid], the pIC50 in test [1] was 5.30 to 6.00; in test [2] it was > 6.30; in test [3], 7.00 to 7.30.

As to `Cc1cc(C(C)Nc2ccccc2C(=O)O)c2oc(-c3ccc4[nH]ncc4c3)cc(=O)c2c1` (single isomer, unassigned) [Example 60, 2-[1-[2-(1H-Indazol-5-yl)-6-methyl-4-oxo-chromen-8-yl]ethylamino]benzoic acid], the pIC50 was 6.00 to 6.30 in test [1], > 6.30 in test [2] and > 7.30 in test [3].

Consider `Cc1cc([C@@H](C)Nc2ccc(Br)nc2C(=O)O)c2oc(-c3ccc4nn(C)cc4c3)c(C)c(=O)c2c1` [Example 244, 6-Bromo-3-[[(1R)-1-[3,6-dimethyl-2-(2-methylindazol-5-yl)-4-oxo-chromen-8-yl]ethyl]amino]pyridine-2-carboxylic acid], for which the negative-log IC50 (pIC50) in test [1] is > 6.30; in test [2], > 6.30; in test [3] it was > 7.30.

Turning to `Cc1cc(C(C)Nc2ccccc2C(=O)O)c2oc(-c3cc(Cl)c4nn(C)cc4c3)cc(=O)c2c1` (single isomer, unassigned) [Example 95, 2-[1-[2-(7-Chloro-2-methyl-indazol-5-yl)-6-methyl-4-oxo-chromen-8-yl]ethylamino]benzoic acid], the results for the negative-log IC50 (pIC50) in test [1], in test [2] and in test [3] were 6.00 to 6.30, > 6.30 and > 7.30, respectively.

As for `Cc1cc([C@@H](C)Nc2ccc(F)c(F)c2C(=O)O)c2oc(-c3ccc4nn(C)cc4c3)c(C)c(=O)c2c1` [Example 204, 6-[[(1R)-1-[3,6-Dimethyl-2-(2-methylindazol-5-yl)-4-oxo-chromen-8-yl]ethyl]amino]-2,3-difluoro-benzoic acid], the pIC50 in test [1] was 6.00 to 6.30; in test [2], > 6.30; in test [3] it was 7.00 to 7.30.

Regarding `Cc1cc([C@@H](C)Nc2ccc(Cl)nc2C(=O)O)c2oc(-c3cc4ccccc4[nH]3)c(C)c(=O)c2c1` [Example 196, 6-Chloro-3-[[(1R)-1-[2-(1H-indol-2-yl)-3,6-dimethyl-4-oxo-chromen-8-yl]ethyl]amino]pyridine-2-carboxylic acid], the pIC50 in test [1] is 5.30 to 6.00; in test [2], > 6.30; in test [3], > 7.30.

For `COc1ccc2cc(-c3cc(=O)c4cc(C)cc([C@@H](C)Nc5ccccc5C(=O)O)c4o3)ccc2n1` [Example 249, 2-[[(1R)-1-[2-(2-Methoxy-6-quinolyl)-6-methyl-4-oxo-chromen-8-yl]ethyl]amino]benzoic acid], the negative-log IC50 (pIC50) is 5.30 to 6.00 in test [1], > 6.30 in test [2] and 7.00 to 7.30 in test [3].

In the case of `Cc1cc(C(C)Nc2ccccc2C(=O)O)c2oc(-c3ccc4cnn(C)c4c3)c(C)c(=O)c2c1` (single isomer, unassigned) [Example 149, 2-[1-[3,6-Dimethyl-2-(1-methylindazol-6-yl)-4-oxo-chromen-8-yl]ethylamino]benzoic acid], the pIC50 was > 6.30 in test [1], > 6.30 in test [2] and > 7.30 in test [3].

As to `C[C@@H](Nc1ccc(Cl)nc1C(=O)O)c1cc(C(F)(F)F)cc2c(=O)cc(-c3ccc4nn(C)cc4c3)oc12` [Example 169, 6-Chloro-3-[[(1R)-1-[2-(2-methylindazol-5-yl)-4-oxo-6-(trifluoromethyl)chromen-8-yl]ethyl]amino]pyridine-2-carboxylic acid], the results for the pIC50 in test [1], in test [2] and in test [3] were 6.00 to 6.30, > 6.30 and 7.00 to 7.30, respectively.

Regarding `Cc1cc(C(C)Nc2cccc(F)c2C(=O)O)c2oc(-c3ccc4nn(C)cc4c3)cc(=O)c2c1` (single isomer, unassigned) [Example 171, 2-Fluoro-6-[1-[6-methyl-2-(2-methylindazol-5-yl)-4-oxo-chromen-8-yl]ethylamino]benzoic acid], the pIC50 in test [1] is 5.30 to 6.00; in test [2], 5.30 to 6.00; in test [3], < 6.30.

Turning to `Cc1cc(C(C)Nc2ccccc2C(=O)O)c2oc(-c3ccc4oc(=O)[nH]c4c3)cc(=O)c2c1` (single isomer, unassigned) [Example 24, 2-[1-[6-Methyl-4-oxo-2-(2-oxo-3H-1,3-benzoxazol-5-yl)chromen-8-yl]ethylamino]benzoic acid], the pIC50 in test [1] was 5.30 to 6.00; in test [2], > 6.30; in test [3], 7.00 to 7.30.

In the case of `Cc1cc(C(C)Nc2ccccc2C(=O)O)c2oc(-c3cc(F)c4nn(C)cc4c3)cc(=O)c2c1` (single isomer, unassigned) [Example 97, 2-[1-[2-(7-Fluoro-2-methyl-indazol-5-yl)-6-methyl-4-oxo-chromen-8-yl]ethylamino]benzoic acid], the pIC50 was 5.30 to 6.00 in test [1], > 6.30 in test [2] and > 7.30 in test [3].

For the compound `Cc1cc(C(C)Nc2ccccc2C(=O)O)c2oc(-c3ccc4c(c3)NC(=O)C4)cc(=O)c2c1` (single isomer, unassigned) [Example 115, 2-[1-[6-Methyl-4-oxo-2-(2-oxoindolin-6-yl)chromen-8-yl]ethylamino]benzoic acid], the pIC50 is 5.30 to 6.00 in test [1], > 6.30 in test [2] and 6.30 to 7.00 in test [3].

As for `Cc1cc(C(C)Nc2ccccc2C(=O)O)c2oc(-c3cc4cn(C)nc4cn3)cc(=O)c2c1` (single isomer, unassigned) [Example 160, 2-[1-[6-Methyl-2-(2-methylpyrazolo[3,4-c]pyridin-5-yl)-4-oxo-chromen-8-yl]ethylamino]benzoic acid], the negative logarithm of the IC50 (pIC50) in test [1] was 5.30 to 6.00; in test [2], > 6.30; in test [3], 7.00 to 7.30.

Turning to `Cc1cc(C(C)Nc2ccccc2C(=O)O)c2oc(-c3ccc4[nH]ncc4c3)c(C)c(=O)c2c1` (single isomer, unassigned) [Example 132, 2-[1-[2-(1H-Indazol-5-yl)-3,6-dimethyl-4-oxo-chromen-8-yl]ethylamino]benzoic acid], the figures for the negative logarithm of the IC50 (pIC50) in test [1], in test [2] and in test [3] were 6.00 to 6.30, > 6.30 and > 7.30, respectively.

For `Cc1cc(C(C)Nc2ccccc2C(=O)O)c2oc(-c3cnn4cccnc34)cc(=O)c2c1` (single isomer, unassigned) [Example 34, 2-[1-(6-Methyl-4-oxo-2-pyrazolo[1,5-a]pyrimidin-3-yl-chromen-8-yl)ethylamino]benzoic acid], the figures for the negative logarithm of the IC50 (pIC50) in test [1], in test [2] and in test [3] were 5.30 to 6.00, > 6.30 and 7.00 to 7.30, respectively.

Regarding `CC(Nc1ccc(Cl)nc1C(=O)O)c1cc(C(F)(F)F)cc2c(=O)cc(-c3ccc4c(cnn4C)c3)oc12` (single isomer, unassigned) [Example 168, 6-Chloro-3-[1-[2-(1-methylindazol-5-yl)-4-oxo-6-(trifluoromethyl)chromen-8-yl]ethylamino]pyridine-2-carboxylic acid], the results for the negative-log IC50 (pIC50) in test [1], in test [2] and in test [3] were > 6.30, > 6.30 and 7.00 to 7.30, respectively.

As for `Cc1cc(C(C)Nc2ccccc2C(=O)O)c2oc(-c3ccc4c(c3)CN(C)C4=O)cc(=O)c2c1` (single isomer, unassigned) [Example 32, 2-[1-[6-Methyl-2-(2-methyl-1-oxo-isoindolin-5-yl)-4-oxo-chromen-8-yl]ethylamino]benzoic acid], the negative logarithm of the IC50 (pIC50) in test [1] was 5.00 to 5.30; in test [2], < 5.00; in test [3], < 6.30.

Take `Cc1cc(C(C)Nc2ccccc2C(=O)O)c2oc(-c3ccc4cc[nH]c4c3)cc(=O)c2c1` (stereo not drawn) [Example 18, 2-[1-[2-(1H-Indol-6-yl)-6-methyl-4-oxo-chromen-8-yl]ethylamino]benzoic acid]: the pIC50 in test [1] was 5.30 to 6.00; in test [2], > 6.30; in test [3], 6.30 to 7.00.
